Measurements reported in patent publication US10900089B2, “Methods for predicting drug responsiveness in cancer patients” (Oncology Venture ApS, priority 2017, dated 2021).

Columns and labels:
[1] = tested on: NCI60 cancer cell lines; assay: NCI60 growth assay: growth inhibition (GI50) profiles of therapeutic agents and their similarity; format: cell-based, human
Procedure: The human tumor cell lines of the cancer screening panel may be grown in RPMI 1640 medium containing 5% fetal bovine serum and 2 mM L-glutamine. Cells may be inoculated into 96 well microtiter plates in 100 μL at plating densities ranging from 5,000 to 40,000 cells/well depending on the doubling time of individual cell lines. After cell inoculation, the microtiter plates may be incubated at 37° C., 5% CO2, 95% air and 100% relative humidity for 24 hours prior to addition of experimental agent (e.g., an anthracycline, such as doxorubicin, epirubicin, daunorubicin, or idarubicin, or an anthracycline-containing liposome, such as a doxorubicin-containing liposome (e.g., 2B3-101)). […]
Following agent addition (e.g., an anthracycline, such as doxorubicin, epirubicin, daunorubicin, or idarubicin, or an anthracycline-containing liposome, such as a doxorubicin-containing liposome (e.g., 2B3-101)), the plates may be incubated for an additional 48 h at 37° C., 5% CO2, 95% air, and 100% relative humidity. […] Bound stain may be subsequently solubilized with 10 mM trizma base, and the absorbance may be read on an automated plate reader at a wavelength of 515 nm. […] Percentage growth inhibition may be calculated as: [(Ti−Tz)/(C−Tz)]×100 for concentrations for which Ti>/=Tz [(Ti−Tz)/Tz]×100 for concentrations for which Ti<Tz […]

[2] = tested on: breast cancer; assay: Clinical trial of 137 breast cancer patients treated with epirubicin (progression free survival, DRP validation); format: in vivo, human
Source text: The biomarkers of sensitivity and resistance identified in Example 2 and shown in Tables 3 and 4 have been validated in a clinical trial of 137 breast cancer patients treated with epirubicin. Patients were examined every 9 to 12 weeks by CT scan and clinical evaluation. After patient informed consent, mRNA was isolated from formalin fixed paraffin embedded tumor tissue from diagnostic biopsies and analyzed using Affymetrix arrays. Blinded predictions of epirubicin efficacy were compared to clinical data collected retrospectively from patient medical records. Statistical analysis was performed using Cox proportional hazards model adjusted for treatment line. The primary endpoint was progression free survival (PFS). Median time to progression was 9.3 months (95% CI: 7.2-13.2). Of the 137 patients, four received epirubicin more than once.
The estimated hazard ratio was 0.56 (90% CI: 0.35-0.89) comparing two patients with DRP score differing by 50 percentage points. The estimated median time to progression for a patient with a DRP value of 25% was 7 months versus 13 months for a patient with a DRP value of 75%. No interaction with previous adjuvant chemotherapy was observed (p=0.98).

## COc1cccc2c1C(=O)c1c(O)c3c(c(O)c1C2=O)C[C@@](O)(C(=O)CO)C[C@@H]3O[C@H]1C[C@H](N)[C@@H](O)[C@H](C)O1 [epirubicin]
[1]
  anti-tumor activity compared with doxorubicin: nearly identical to that of doxorubicin
[2]; 137 breast cancer patients treated with epirubicin
  Median time to progression: 9.3 months
[2]; patient with a DRP value of 25%
  estimated median time to progression: 7 months
[2]; patient with a DRP value of 75%
  estimated median time to progression: 13 months

## CC(=O)[C@]1(O)Cc2c(O)c3c(c(O)c2[C@@H](O[C@H]2C[C@H](N)[C@H](O)[C@H](C)O2)C1)C(=O)c1ccccc1C3=O [idarubicine, idarubicin]
[1]; NCI60 growth assay, FIG. 1
  effect on the NCI60 tumor cell lines in multidimensional scaling plot of growth inhibition profiles: slightly different effect on the NCI60 tumor cell lines
